Laboratory results as given in patent US11208400B2, “Substituted 6-(1H-pyrazol-1-yl)pyrimidin-4-amine derivatives and uses thereof” (Bayer Aktiengesellschaft, priority 2016, dated 2021).

Target: T1, human Npt2a (Homo sapiens, UniProt Q06495)
T1 construct: expressed in transfected cells
T1 sequence (Q06495 1-639): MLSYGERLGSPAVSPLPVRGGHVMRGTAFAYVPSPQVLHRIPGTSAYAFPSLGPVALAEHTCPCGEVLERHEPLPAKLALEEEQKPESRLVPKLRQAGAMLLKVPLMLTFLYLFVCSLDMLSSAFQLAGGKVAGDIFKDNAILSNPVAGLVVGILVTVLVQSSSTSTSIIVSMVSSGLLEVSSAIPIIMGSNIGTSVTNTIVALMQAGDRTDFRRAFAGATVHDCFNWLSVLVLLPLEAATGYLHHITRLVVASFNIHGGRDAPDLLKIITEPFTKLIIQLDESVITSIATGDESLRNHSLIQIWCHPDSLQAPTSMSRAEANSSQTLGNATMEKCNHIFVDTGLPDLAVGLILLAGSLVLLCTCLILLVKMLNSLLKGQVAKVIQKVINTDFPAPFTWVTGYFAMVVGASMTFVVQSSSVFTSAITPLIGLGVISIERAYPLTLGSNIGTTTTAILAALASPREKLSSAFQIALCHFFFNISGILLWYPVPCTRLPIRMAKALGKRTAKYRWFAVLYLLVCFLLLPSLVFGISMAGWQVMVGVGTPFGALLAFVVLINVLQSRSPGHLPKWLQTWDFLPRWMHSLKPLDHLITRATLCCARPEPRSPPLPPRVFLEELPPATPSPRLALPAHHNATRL
Assay: Npt2a activity cell based assay, membrane potential dye, CHO T-REx hNpt2a cells
Details: doxycycline-induced, depolarization by sodium phosphate influx, average or median values if tested more than once
How it was run: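 Doxycycline-induced (0.5 μg/mL, 24 h) CHO T-REx cells were loaded with membrane potential dye in sodium-free NHE buffer (pH 7.4) and exposed to compound (50 μM–1 nM, 5 min, room temperature).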

| SMILES | IC50 [nM] |
| --- | --- |
| CCc1c(-c2ccc(C#N)cc2)nn(C)c1Nc1cc(-n2nc(C)cc2C(F)F)ncn1 [Example 216, 4-[5-({6-[5-(difluoromethyl)-3-methyl-1H-pyrazol-1-yl]pyrimidin-4-yl}amino)-4-ethyl-1-methyl-1H-pyrazol-3-yl]benzonitrile] | 12 |
| CCc1c(Nc2cc(-n3nc(C)cc3C(F)F)ncn2)nn(C)c1-c1ccc(C#N)cc1 [Example 217, 4-[3-({6-[5-(difluoromethyl)-3-methyl-1H-pyrazol-1-yl]pyrimidin-4-yl}amino)-4-ethyl-1-methyl-1H-pyrazol-5-yl]benzonitrile] | 2 |
| Cc1nn(-c2cc(Nc3c(Cl)c(-c4ccc(F)cc4)nn3CC3CC3)ncn2)c2cnccc12 [Example 218, N-[4-chloro-1-(cyclopropylmethyl)-3-(4-fluorophenyl)-1H-pyrazol-5-yl]-6-(3-methyl-1H-pyrazolo[3,4-c]pyridin-1-yl)pyrimidin-4-amine] | 32 |
| CCOC(=O)c1c(C)nn(-c2cc(Nc3c(C)nn(-c4ccc(C#N)cc4)c3C)ncn2)c1C [Example 219, ethyl 1-(6-{[1-(4-cyanophenyl)-3,5-dimethyl-1H-pyrazol-4-yl]amino}pyrimidin-4-yl)-3,5-dimethyl-1H-pyrazole-4-carboxylate] | < 1.6 |
| CCc1c(Nc2cc(-n3nc(C)c(C4(O)COC4)c3C)ncn2)nn(C)c1-c1ccc(F)cc1 [Example 220, 3-[1-(6-{[4-ethyl-5-(4-fluorophenyl)-1-methyl-1H-pyrazol-3-yl]amino}pyrimidin-4-yl)-3,5-dimethyl-1H-pyrazol-4-yl]oxetan-3-ol] | 320 |
| Cc1nn(-c2cc(Nc3c(C)c(-c4ccc(C#N)cc4)nn3CCC3CC3)ncn2)c(C)c1Cl [Example 221, 4-[5-{[6-(4-chloro-3,5-dimethyl-1H-pyrazol-1-yl)pyrimidin-4-yl]amino}-1-(2-cyclopropylethyl)-4-methyl-1H-pyrazol-3-yl]benzonitrile] | 6 |
| Cc1nn(-c2cc(Nc3nn(CCC4CC4)c(-c4ccc(C#N)cc4)c3C)ncn2)c(C)c1Cl [Example 222, 4-[3-{[6-(4-chloro-3,5-dimethyl-1H-pyrazol-1-yl)pyrimidin-4-yl]amino}-1-(2-cyclopropylethyl)-4-methyl-1H-pyrazol-5-yl]benzonitrile] | 44 |
| CCc1c(Nc2cc(-n3nc(C)c4ncccc43)ncn2)nn(C)c1-c1ccc(F)cc1 [Example 223, N-[4-ethyl-5-(4-fluorophenyl)-1-methyl-1H-pyrazol-3-yl]-6-(3-methyl-1H-pyrazolo[4,3-b]pyridin-1-yl)pyrimidin-4-amine] | 36 |
| CCc1c(Nc2cc(-n3nc(C)c4cnccc43)ncn2)nn(C)c1-c1ccc(F)cc1 [Example 224, N-[4-ethyl-5-(4-fluorophenyl)-1-methyl-1H-pyrazol-3-yl]-6-(3-methyl-1H-pyrazolo[4,3-c]pyridin-1-yl)pyrimidin-4-amine] | 47 |
| CCc1c(-c2ccc(F)cc2)nn(CC2CC2)c1Nc1cc(-n2nc(C)c(-c3nnc(C)o3)c2C)ncn1 [Example 225, N-[1-(cyclopropylmethyl)-4-ethyl-3-(4-fluorophenyl)-1H-pyrazol-5-yl]-6-[3,5-dimethyl-4-(5-methyl-1,3,4-oxadiazol-2-yl)-1H-pyrazol-1-yl]pyrimidin-4-amine] | 8 |
| CCc1c(-c2ccc(F)cc2)nn(C)c1Nc1cc(-n2nc(C)c(-c3nnc(C)o3)c2C)ncn1 [Example 226, 6-[3,5-dimethyl-4-(5-methyl-1,3,4-oxadiazol-2-yl)-1H-pyrazol-1-yl]-N-[4-ethyl-3-(4-fluorophenyl)-1-methyl-1H-pyrazol-5-yl]pyrimidin-4-amine] | 190 |
| Cc1c(Nc2cc(-n3nc(C)c4ccncc43)ncn2)nn(C)c1-c1ccc(C#N)cc1 [Example 228, 4-(1,4-dimethyl-3-{[6-(3-methyl-1H-pyrazolo[3,4-c]pyridin-1-yl)pyrimidin-4-yl]amino}-1H-pyrazol-5-yl)benzonitrile] | 210 |
| CCc1c(-c2ccc(F)cc2)nn(C)c1Nc1cc(-n2nc(C)c3ncccc32)ncn1 [Example 229, N-[4-ethyl-3-(4-fluorophenyl)-1-methyl-1H-pyrazol-5-yl]-6-(3-methyl-1H-pyrazolo[4,3-b]pyridin-1-yl)pyrimidin-4-amine] | 350 |
| CCc1c(-c2ccc(F)cc2)nn(C)c1Nc1cc(-n2nc(C)c3cnccc32)ncn1 [Example 230, N-[4-ethyl-3-(4-fluorophenyl)-1-methyl-1H-pyrazol-5-yl]-6-(3-methyl-1H-pyrazolo[4,3-c]pyridin-1-yl)pyrimidin-4-amine] | 830 |
| Cc1c(-c2ccc(C#N)cc2)nn(CC2CC2)c1Nc1cc(-n2nc(C)c3ccncc32)ncn1 [Example 231, 4-[1-(cyclopropylmethyl)-4-methyl-5-{[6-(3-methyl-1H-pyrazolo[3,4-c]pyridin-1-yl)pyrimidin-4-yl]amino}-1H-pyrazol-3-yl]benzonitrile] | 2 |
| Cc1c(-c2ccc(C#N)cc2)nn(CC2CC2)c1Nc1cc(-n2nc(C)c3ncccc32)ncn1 [Example 232, 4-[1-(cyclopropylmethyl)-4-methyl-5-{[6-(3-methyl-1H-pyrazolo[4,3-b]pyridin-1-yl)pyrimidin-4-yl]amino}-1H-pyrazol-3-yl]benzonitrile] | 6 |
| Cc1c(-c2ccc(C#N)cc2)nn(CC2CC2)c1Nc1cc(-n2nc(C)c3cnccc32)ncn1 [Example 233, 4-[1-(cyclopropylmethyl)-4-methyl-5-{[6-(3-methyl-1H-pyrazolo[4,3-c]pyridin-1-yl)pyrimidin-4-yl]amino}-1H-pyrazol-3-yl]benzonitrile] | 29 |
| Cc1cc(C(F)F)n(-c2cc(Nc3c(C)c(-c4ccc(C#N)cc4)nn3CC(F)F)ncn2)n1 [Example 234, 4-[1-(2,2-difluoroethyl)-5-({6-[5-(difluoromethyl)-3-methyl-1H-pyrazol-1-yl]pyrimidin-4-yl}amino)-4-methyl-1H-pyrazol-3-yl]benzonitrile] | 28 |
| Cc1nn(-c2cc(Nc3nn(C)c(-c4ccc(C#N)cc4)c3C)ncn2)c(C(F)F)c1Cl [Example 235, 4-[3-({6-[4-chloro-5-(difluoromethyl)-3-methyl-1H-pyrazol-1-yl]pyrimidin-4-yl}amino)-1,4-dimethyl-1H-pyrazol-5-yl]benzonitrile] | 3 |
| Cc1cc(C(F)F)n(-c2cc(Nc3nn(C)c(-c4ccc(C#N)cc4)c3C)ncn2)n1 [Example 236, 4-[3-({6-[5-(difluoromethyl)-3-methyl-1H-pyrazol-1-yl]pyrimidin-4-yl}amino)-1,4-dimethyl-1H-pyrazol-5-yl]benzonitrile] | 3 |
| Cc1nn(-c2cc(Nc3c(C)c(-c4ccc(C#N)cc4)nn3CCC3CC3)ncn2)c(C(F)F)c1Cl [Example 237, 4-[5-({6-[4-chloro-5-(difluoromethyl)-3-methyl-1H-pyrazol-1-yl]pyrimidin-4-yl}amino)-1-(2-cyclopropylethyl)-4-methyl-1H-pyrazol-3-yl]benzonitrile] | 15 |
| CCc1c(Nc2cc(-n3nc(C)c(CC(C)(C)O)c3C)ncn2)nn(C)c1-c1ccc(F)cc1 [Example 238, 1-[1-(6-{[4-ethyl-5-(4-fluorophenyl)-1-methyl-1H-pyrazol-3-yl]amino}pyrimidin-4-yl)-3,5-dimethyl-1H-pyrazol-4-yl]-2-methylpropan-2-ol] | 83 |
| Cc1nn(-c2cc(Nc3nn(CCC4CC4)c(-c4ccc(C#N)cc4)c3C)ncn2)c(C(F)F)c1Cl [Example 239, 4-[3-({6-[4-chloro-5-(difluoromethyl)-3-methyl-1H-pyrazol-1-yl]pyrimidin-4-yl}amino)-1-(2-cyclopropylethyl)-4-methyl-1H-pyrazol-5-yl]benzonitrile] | 290 |
| Cc1cc(C(F)F)n(-c2cc(Nc3c(C)c(-c4ccc(C#N)cc4)nn3C)ncn2)n1 [Example 240, 4-[5-({6-[5-(difluoromethyl)-3-methyl-1H-pyrazol-1-yl]pyrimidin-4-yl}amino)-1,4-dimethyl-1H-pyrazol-3-yl]benzonitrile] | 18 |
| Cc1nn(-c2cc(Nc3c(C)c(-c4ccc(C#N)cc4)nn3C)ncn2)c(C(F)F)c1Cl [Example 241, 4-[5-({6-[4-chloro-5-(difluoromethyl)-3-methyl-1H-pyrazol-1-yl]pyrimidin-4-yl}amino)-1,4-dimethyl-1H-pyrazol-3-yl]benzonitrile] | 7 |
| CCc1c(Nc2cc(-n3ccc(C)n3)ncn2)nn(C)c1-c1ccc(F)cc1 [Example 242, N-[4-ethyl-5-(4-fluorophenyl)-1-methyl-1H-pyrazol-3-yl]-6-(3-methyl-1H-pyrazol-1-yl)pyrimidin-4-amine] | 21 |
| Cc1ccn(-c2cc(Nc3c(C)c(-c4ccc(C#N)cc4)nn3CC3CC3)ncn2)n1 [Example 243, 4-[1-(cyclopropylmethyl)-4-methyl-5-{[6-(3-methyl-1H-pyrazol-1-yl)pyrimidin-4-yl]amino}-1H-pyrazol-3-yl]benzonitrile] | 28 |
| Cc1nn(-c2cc(Nc3c(C)c(-c4ccc(F)cc4)nn3CC3CC3)ncn2)c(C)c1C1(O)CC1 [Example 244, 1-[1-(6-{[1-(cyclopropylmethyl)-3-(4-fluorophenyl)-4-methyl-1H-pyrazol-5-yl]amino}pyrimidin-4-yl)-3,5-dimethyl-1H-pyrazol-4-yl]cyclopropanol] | 8 |
